Laboratory results taken from US11365201B2, “Chlorotonil derivatives” (HELMHOLTZ-ZENTRUM FÜR INFEKTIONSFORSCHUNG GMBH, priority 2017, dated 2022).
≈ marks a conversion by molar mass, not a printed value. Like-named read-outs stand apart in the source and are kept apart here.

Assays:
[1] = system: P. falciparum Dd2 (resistant strain); experiment: Antiplasmodial in vitro drug sensitivity assay (HRP2-ELISA); assay type: cell-based; details: Plasmodium falciparum, P. falciparum Dd2 (resistant strain), read-out: IC50 against P. falciparum Dd2
Procedure: (§1) Two laboratory strains of P. falciparum, the chloroquine sensitive 3D7 and the multi-resistant Dd2 were kept in continuous culture as previously described (Trager and Jensen 1976). In brief, parasites were kept in complete culture medium (RPMI 1640, 25 mM HEPES, 2 mM L-glutamine, 50 μg/ml gentamicin and 0.5% w/v AlbuMAX) at 37° C., 5% CO2 and 5% oxygen at 5% hematocrit with daily change of medium. Synchronization was performed with sorbitol twice a week (Lambros and Vanderberg 1979).
(§2) In Vitro Drug Sensitivity Assay
(§3) All compounds were dissolved in DMSO at stock dilutions between 25 and 100 mM; the reference drug chloroquine diphosphate (MW: 515.86) was diluted in distilled water and DMSO, respectively. […] Antiplasmodial activity of the different compounds was tested in a drug sensitivity assay against the two laboratory strains using the histidine-rich protein 2 (HRP2) assay as described previously (Noedl 2005). In brief: 96 well plates were pre-coated with the different compounds in a threefold dilution before ring stage parasites were added in complete culture medium at a hematocrit of 1.5% and a parasitemia of 0.05% in a total volume of 225 μl per well. After three days of incubation plates were frozen until analyzed by HRP2-ELISA. All compounds were evaluated in duplicate in at least two independent experiments.

[2] = system: P. falciparum 3D7 (sensitive strain); experiment: as above; assay type: cell-based; details: Plasmodium falciparum, P. falciparum 3D7 (sensitive strain), read-out: IC50 against P. falciparum 3D7
Procedure: as §1, §2, §3

E. coli TolC (+PMBN) = experiment: Antimicrobial assay, MIC by microbroth dilution with PMBN; assay type: cell-based; details: 16 h, 3 μg/mL polymyxin B nonapeptide (PMBN) added
Procedure: (§4) Bacterial strains used in susceptibility assays (minimum inhibitory concentrations, MIC) were either part of our internal strain collection or were purchased form the German Collection of Microorganisms and Cell Cultures (DSMZ). All compounds were prepared as DMSO stocks and MIC values were determined in standard microbroth dilution assays. Overnight cultures of bacteria were diluted in cation-adjusted Muller-Hinton broth (BBL™, BD) and were adjusted to approximately 10^5 cfu/mL. For the E. coli culture, 3 μg/mL of polymyxin B nonapeptide (PMBN) was added to increase permeability of the outer membrane as chlorotonils were previously shown to not penetrate into Gram-negative cells. Bacteria were grown in the presence of the derivatives in serial dilution for 16 h at their optimal growth temperature. MIC values were determined according to CLSI guidelines (antibiotic concentration at which no visible bacterial growth is observed).

[3] = Determination of water solubility, Method 2 (HPLC-MS standard curve, saturated solution in water); assay type: physicochemical; details: thermodynamic from solid; saturated solution in water, HPLC-MS standard curve
Procedure: (§5) Determination of Water Solubility
A standard curve with 10 calibration points of the compound of interest is plotted using HPLC-MS and serial dilution. The dilutions and stock solutions were prepared in THF as a solvent. Following the measurements, a saturated solution in water of the compound in study was also measured. Upon plotting the standard curve using the peak areas of the MS peaks, the water samples were plotted along the curve and the solubility was then calculated.

B. subtilis DSM-10 = experiment: Antimicrobial assay, MIC by microbroth dilution; assay type: cell-based; details: Bacillus subtilis, DSM10; 16 h, cation-adjusted Muller-Hinton broth
Procedure: as §4, with “For the E. coli culture, 3 μg/mL of polymyxin B nonapeptide (PMBN) was added to increase permeability of the outer membrane as chlorotonils were previously shown to not penetrate into Gram-negative cells.” left out

C. glutamicum DSM-20300 = experiment: Antimicrobial assay, MIC by microbroth dilution; assay type: cell-based; details: Corynebacterium glutamicum, DSM20300; 16 h, cation-adjusted Muller-Hinton broth
Procedure: as §4, with “For the E. coli culture, 3 μg/mL of polymyxin B nonapeptide (PMBN) was added to increase permeability of the outer membrane as chlorotonils were previously shown to not penetrate into Gram-negative cells.” left out

S. aureus Newman = experiment: Antimicrobial assay, MIC by microbroth dilution; assay type: cell-based; details: Staphylococcus aureus, NEWMAN; 16 h, cation-adjusted Muller-Hinton broth
Procedure: as §4, with “For the E. coli culture, 3 μg/mL of polymyxin B nonapeptide (PMBN) was added to increase permeability of the outer membrane as chlorotonils were previously shown to not penetrate into Gram-negative cells.” left out

[4] = Determination of water solubility, Method 1 (suspension in tap water, weighing); assay type: physicochemical; details: thermodynamic from solid, room temperature, 18 h stirring, triplicates
Procedure: as §5
10 mg of compound was suspended in 1 L of tap water and the solution was stirred at room temperature for 18 h. Upon completion, solution was sonicated for another hour, centrifuged and the supernatant was separated from the precipitate. Both aliquots were lyophilized, and weighed. This procedure was performed in triplicates.

[5] = system: L-929 (murine fibroblasts); experiment: Cytotoxicity assay (MTT, 5 d); assay type: cell-based; details: Mus musculus, L929, 120 h
Procedure: Cytotoxicity Assay The murine fibroblast cell line L-929 was obtained from the German Collection of Microorganisms and Cell Cultures (DSMZ) and maintained under conditions recommended by the depositor. Cells were seeded at 6×10^3 cells per well of sterile 96-well plates in 180 μL complete medium and treated with the compounds in serial dilution after 2 h of equilibration. After 5 d, viability was assessed by the MTT method. After 1.5 h incubation with 0.5 mg/mL MTT reagent, cells were washed with PBS and 100 μL of 2-propanol/10 N HCl (250:1) was added. The absorbance at 570 nm was determined on a microplate reader and cell viability was expressed as percentage relative to the respective solvent control. Half-inhibitory concentrations (IC50) were determined by sigmoidal curve fitting.

[6] = system: zebrafish larvae of the AB wildtype line; experiment: Zebrafish embryo toxicity, maximum tolerated concentration (MTC), AB line; assay type: in vivo; details: AB line, at five dpf, incubation started at two dpf
Procedure: (§6) Zebrafish Embryo Toxicity
(§7) The maximum tolerated concentration (MTC) was determined on zebrafish larvae of the AB wildtype line and the TLF wild type line. Larvae were placed into a 96-well plate (one larva per well) and incubated in a solution at different concentrations (100, 50, 25, 10, 1 μM) of ChA, ChA-Epo2, ChB or ChB-Epo at two days post fertilization (dpf) for AB and in a solution at different concentrations of ChA (100, 50 μM) ChA-Epo2 (25, 10, 1 μM), ChB (100, 50 μM) or ChB-Epo (100, 50, 25 μM) at one dpf for TLF. Five zebrafish larvae were used per condition. The incubated embryos were kept in compound solutions at 28° C. until five dpf and monitored daily by microscopy. The final MTC result was recorded at five dpf. Compound solutions were prepared in the larvae medium Danieau's. Additionally a solution of 0.5% DMSO in Danieau's was used as vehicle control and Danieau's alone as a negative control.

[7] = system: zebrafish larvae of the TLF wild type line; experiment: Zebrafish embryo toxicity, maximum tolerated concentration (MTC), TLF line; assay type: in vivo; details: at five dpf, incubation started at one dpf
Procedure: as §6, §7

Gram-positive bacteria = experiment: Antimicrobial assay, MIC against a range of Gram-positive bacteria (Table 5); assay type: cell-based; details: read-out: MIC
Procedure: as §4, with “For the E. coli culture, 3 μg/mL of polymyxin B nonapeptide (PMBN) was added to increase permeability of the outer membrane as chlorotonils were previously shown to not penetrate into Gram-negative cells.” left out

For `C[C@@H]1C(=O)O[C@@H](C)/C=C/C=C\[C@@H](C)[C@@H]2C=C[C@@H]3C[C@@](C)(O)[C@H](Cl)[C@@H](C)[C@H]3[C@@H]2C(=O)C(Cl)(Cl)C1=O` [ChA-Epo2-Cl], the IC50 [1] was 0.0459 µM, the IC50 [2] was 0.0387 µM and the “MIC E. coli TolC (+PMBN)” value (E. coli TolC (+PMBN)) was 0.8 µg/mL. The solubility [3] was 320 µg/mL (≈ 602 µM), the MIC (B. subtilis DSM-10) was 0.1 µg/mL (≈ 0.188 µM) and the MIC (C. glutamicum DSM-20300) was 0.4 µg/mL (≈ 0.752 µM). For the same compound, the MIC (S. aureus Newman) was 0.05 µg/mL (≈ 0.094 µM), the solubility at 18 h [4] was 280 µg/mL (≈ 526 µM) and the IC50 [5] was 4200 nM.
In the case of `C[C@@H]1C(=O)O[C@@H](C)/C=C/C=C\[C@@H](C)[C@@H]2C=C[C@@H]3C[C@@](C)(O)[C@H](O[N+](=O)[O-])[C@@H](C)[C@H]3[C@@H]2C(=O)C(Cl)(Cl)C1=O` [ChA-Epo2-ONO2], the IC50 [1] is reported as 0.0022 µM, the IC50 [2] is reported as 0.00092 µM and the “MIC E. coli TolC (+PMBN)” value (E. coli TolC (+PMBN)) is reported as 0.1 µg/mL. For the same compound, the solubility [3] was 380 µg/mL (≈ 680 µM), the MIC (B. subtilis DSM-10) was 0.025 µg/mL (≈ 0.0448 µM) and the MIC (C. glutamicum DSM-20300) was 0.1 µg/mL (≈ 0.179 µM). It also gave an MIC (S. aureus Newman) of 0.025 µg/mL (≈ 0.0448 µM) and a solubility at 18 h [4] of 310 µg/mL (≈ 555 µM).
With `CC(C)CCO[C@@H]1[C@@H](C)[C@H]2[C@@H]3C(=O)C(Cl)(Cl)C(=O)[C@H](C)C(=O)O[C@@H](C)/C=C/C=C\[C@@H](C)[C@@H]3C=C[C@@H]2C[C@@]1(C)O` [ChA-Epo2-Oisoamyl] the IC50 ([1]; μM) was > 11 µM, the IC50 ([2]; μM) was > 11 µM and the “MIC E. coli TolC (+PMBN)” value (E. coli TolC (+PMBN)) was 0.8 µg/mL. The MIC (B. subtilis DSM-10) was 0.8 µg/mL (≈ 1.37 µM), the MIC (C. glutamicum DSM-20300) was 3.2 µg/mL (≈ 5.48 µM) and the MIC (S. aureus Newman) was 1.6 µg/mL (≈ 2.74 µM). For the same compound, the IC50 [5] was 44700 nM.
In the case of `C[C@@H]1C(=O)O[C@@H](C)/C=C/C=C\[C@@H](C)[C@@H]2C=C[C@@H]3C[C@@]4(C)O[C@H]4[C@@H](C)[C@H]3[C@@H]2C(=O)C(Cl)(Cl)C1=O` [ChA-Epo2], the IC50 [1] is reported as 0.0871 µM, the IC50 [2] is reported as 0.0513 µM and the “MIC E. coli TolC (+PMBN)” value (E. coli TolC (+PMBN)) is reported as 0.1 µg/mL. For the same compound, the solubility [3] was 10.3 µg/mL (≈ 20.8 µM), the “Observations noted on fish larvae” value ([6]; 10 μM) was “died” and the “Observations noted on fish larvae” value ([6]; 25 μM) was “died”. For the same compound, the “Observations noted on fish larvae” value ([6]; 50 μM) was “died”, the “Observations noted on fish larvae” value ([6]; 100 μM) was “died” and the “MTC (maximum tolerated concentration)” value [6] was 1 µM. For the same compound, the “Observations noted on fish larvae” value ([7]; 10 μM) was 4 delayed in development, the “Observations noted on fish larvae” value ([7]; 25 μM) was 1 died, 4 delayed in and the “MTC (maximum tolerated concentration)” value [7] was 1 µM. It also gave an MIC (B. subtilis DSM-10) of 0.025 µg/mL (≈ 0.0505 µM), an MIC (C. glutamicum DSM-20300) of 0.05 µg/mL (≈ 0.101 µM) and an MIC (S. aureus Newman) of 0.025 µg/mL (≈ 0.0505 µM). The solubility at 18 h [4] was 14 µg/mL (≈ 28.3 µM), the MIC (Gram-positive bacteria; Enterococcus faecalis, E. faecalis 20478) was 0.8 µg/mL (≈ 1.61 µM) and the MIC (Gram-positive bacteria; Enterococcus faecalis, E. faecalis 29212) was 1.6 µg/mL (≈ 3.23 µM). The MIC (Gram-positive bacteria; Enterococcus faecium, E. faecium 20477) was 3.2 µg/mL (≈ 6.46 µM), the MIC (Gram-positive bacteria; Enterococcus faecium, VRE, E. faecium 17050 (VRE)) was 0.4 µg/mL (≈ 0.807 µM) and the MIC (Gram-positive bacteria; Micrococcus luteus, M. luteus) was 0.025 µg/mL (≈ 0.0505 µM). The MIC (Gram-positive bacteria; Mycolicibacterium smegmatis, M. smegmatis) was 0.003 µg/mL (≈ 0.00606 µM), the MIC (Gram-positive bacteria; Priestia megaterium, B. megaterium) was 0.00125 µg/mL (≈ 0.00252 µM) and the MIC (Gram-positive bacteria; Staphylococcus epidermidis, S. epidermidis 28765) was 0.2 µg/mL (≈ 0.404 µM). The MIC (Gram-positive bacteria; Streptococcus pneumoniae, PRSP, S. pneumoniae 11865 (PRSP)) was 8 µg/mL (≈ 16.1 µM), the MIC (Gram-positive bacteria; Streptococcus pneumoniae, S. pneumoniae 20566) was 0.2 µg/mL (≈ 0.404 µM) and the IC50 [5] was 2100 nM.
